Assay results reported in ChEMBL document CHEMBL1201862, “PubChem BioAssay data set” (2004).
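The compound was tested at five concentrations on cells cultured in 96-well plates, with a 48-hour exposure period. Abbreviation: GI50, concentration required for 50% inhibition of growth.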 Activity calls are given as the source filed them. No stated cut-off is given here; in the data, active = GI50 up to about 1.1 µM and inactive = higher.

Tests used:
Experiment in all cases: DTP human tumour cell line panel, 48 h
[1] = system: Malme-3M
[2] = system: BT-549
[3] = system: SK-MEL-5
[4] = system: NCI-H522
[5] = system: UO-31
[6] = system: Hs-578T
[7] = system: U-251
[8] = system: HT-29
[9] = system: SR
[10] = system: HOP-92
[11] = system: SNB-75
[12] = system: HL-60
[13] = system: NCI-H23
[14] = system: OVCAR-8
[15] = system: SF-268
[16] = system: PC-3
[17] = system: NCI-H460
[18] = system: OVCAR-4
[19] = system: HOP-62
[20] = system: MCF7
[21] = system: SF-539
[22] = system: M14
[23] = system: A498
[24] = system: OVCAR-5
[25] = system: SN12C
[26] = system: IGROV-1
[27] = system: T47D
[28] = system: MDA-MB-435
[29] = system: DU-145
[30] = system: SK-OV-3
[31] = system: HCT-15
[32] = system: LOX IMVI
[33] = system: SNB-19
[34] = system: A549
[35] = system: SK-MEL-28
[36] = system: ACHN
[37] = system: SW-620
[38] = system: TK-10
[39] = system: MDA-N
[40] = system: HCC 2998
[41] = system: CCRF-CEM
[42] = system: UACC-62
[43] = system: 786-0
[44] = system: KM12
[45] = system: MDA-MB-231
[46] = system: K562
[47] = system: HCT-116
[48] = system: SF-295
[49] = system: COLO 205
[50] = system: OVCAR-3
[51] = system: RPMI-8226
[52] = system: NCI-H226
[53] = system: MOLT-4
[54] = system: RXF 393
[55] = system: NCI/ADR-RES
[56] = system: CAKI-1
[57] = system: EKVX
[58] = system: UACC-257
[59] = system: SK-MEL-2

## CC(C)=CCNc1ncnc2c1ncn2CCC(=O)O
[1]
  GI50: > 100 µM (inactive)
[2]
  GI50: > 100 µM (inactive)
[3]
  GI50: > 100 µM (inactive)
[4]
  GI50: > 100 µM (inactive)
[5]
  GI50: > 100 µM (inactive)
[6]
  GI50: > 100 µM (inactive)
[7]
  GI50: > 100 µM (inactive)
[8]
  GI50: > 100 µM (inactive)
[9]
  GI50: > 100 µM (inactive)
[10]
  GI50: > 100 µM (inactive)
[11]
  GI50: > 100 µM (inactive)
[12]
  GI50: > 100 µM (inactive)
[13]
  GI50: > 100 µM (inactive)
[14]
  GI50: > 100 µM (inactive)
[15]
  GI50: > 100 µM (inactive)
[16]
  GI50: > 100 µM (inactive)
[17]
  GI50: > 100 µM (inactive)
[18]
  GI50: > 100 µM (inactive)
[19]
  GI50: > 100 µM (inactive)
[20]
  GI50: > 100 µM (inactive)
[21]
  GI50: > 100 µM (inactive)
[22]
  GI50: > 100 µM (inactive)
[23]
  GI50: > 100 µM (inactive)
[24]
  GI50: > 100 µM (inactive)
[25]
  GI50: > 100 µM (inactive)
[26]
  GI50: > 100 µM (inactive)
[27]
  GI50: > 100 µM (inactive)
[28]
  GI50: > 100 µM (inactive)
[29]
  GI50: > 100 µM (inactive)
[30]
  GI50: > 100 µM (inactive)
[31]
  GI50: > 100 µM
[32]
  GI50: > 100 µM (inactive)
[33]
  GI50: > 100 µM (inactive)
[34]
  GI50: > 100 µM (inactive)
[35]
  GI50: > 100 µM (inactive)
[36]
  GI50: > 100 µM (inactive)
[37]
  GI50: > 100 µM (inactive)
[38]
  GI50: > 100 µM (inactive)
[39]
  GI50: > 100 µM (inactive)
[40]
  GI50: > 100 µM (inactive)
[41]
  GI50: > 100 µM (inactive)
[42]
  GI50: > 100 µM (inactive)
[43]
  GI50: > 100 µM (inactive)
[44]
  GI50: > 100 µM (inactive)
[45]
  GI50: > 100 µM (inactive)
[46]
  GI50: > 100 µM (inactive)
[47]
  GI50: > 100 µM (inactive)
[48]
  GI50: > 100 µM (inactive)
[49]
  GI50: > 100 µM (inactive)
[50]
  GI50: > 100 µM (inactive)
[51]
  GI50: > 100 µM (inactive)
[52]
  GI50: > 100 µM (inactive)
[53]
  GI50: > 100 µM (inactive)
[54]
  GI50: > 100 µM (inactive)
[55]
  GI50: > 100 µM (inactive)

## CC(C)CC(N)C(=O)NC(C(=O)NC(CCCNC(=N)N)C(=O)NC(CS)C(=O)NC1CSCC(C(=O)NC(Cc2ccccc2)C(=O)NC(C(=O)NC(CCCNC(=N)N)C(=O)O)C(C)C)NC(=O)C2CCCN2C(=O)C(CCCCN)NC(=O)C2CCCN2C(=O)C2CCCN2C(=O)C(Cc2ccc(O)cc2)NC(=O)C(CO)NC(=O)C(CCCCN)NC(=O)C(C(C)O)NC(=O)C(Cc2c[nH]c3ccccc23)NC1=O)C(C)C (stereo not drawn)
[1]
  GI50: > 25 µM (inactive)
[56]
  GI50: > 25 µM (inactive)
[2]
  GI50: > 25 µM (inactive)
[3]
  GI50: > 25 µM (inactive)
[4]
  GI50: > 25 µM (inactive)
[5]
  GI50: > 25 µM (inactive)
[6]
  GI50: > 25 µM (inactive)
[7]
  GI50: > 25 µM (inactive)
[8]
  GI50: > 25 µM (inactive)
[9]
  GI50: > 25 µM (inactive)
[10]
  GI50: > 25 µM (inactive)
[12]
  GI50: > 25 µM (inactive)
[13]
  GI50: > 25 µM (inactive)
[14]
  GI50: > 25 µM (inactive)
[15]
  GI50: > 25 µM (inactive)
[16]
  GI50: > 25 µM (inactive)
[18]
  GI50: > 25 µM (inactive)
[19]
  GI50: > 25 µM (inactive)
[20]
  GI50: > 25 µM (inactive)
[21]
  GI50: > 25 µM (inactive)
[22]
  GI50: > 25 µM (inactive)
[23]
  GI50: > 25 µM (inactive)
[57]
  GI50: > 25 µM (inactive)
[24]
  GI50: > 25 µM (inactive)
[25]
  GI50: > 25 µM (inactive)
[58]
  GI50: > 25 µM (inactive)
[26]
  GI50: > 25 µM (inactive)
[27]
  GI50: > 25 µM (inactive)
[28]
  GI50: > 25 µM (inactive)
[29]
  GI50: > 25 µM (inactive)
[30]
  GI50: > 25 µM (inactive)
[31]
  GI50: > 25 µM
[59]
  GI50: > 25 µM (inactive)
[32]
  GI50: > 25 µM (inactive)
[33]
  GI50: > 25 µM (inactive)
[34]
  GI50: > 25 µM (inactive)
[35]
  GI50: > 25 µM (inactive)
[36]
  GI50: > 25 µM (inactive)
[37]
  GI50: > 25 µM (inactive)
[38]
  GI50: > 25 µM (inactive)
[39]
  GI50: > 25 µM (inactive)
[41]
  GI50: > 25 µM (inactive)
[42]
  GI50: > 25 µM (inactive)
[43]
  GI50: > 25 µM (inactive)
[44]
  GI50: > 25 µM (inactive)
[45]
  GI50: > 25 µM (inactive)
[46]
  GI50: > 25 µM (inactive)
[47]
  GI50: > 25 µM (inactive)
[48]
  GI50: > 25 µM (inactive)
[49]
  GI50: > 25 µM (inactive)
[50]
  GI50: > 25 µM (inactive)
[51]
  GI50: > 25 µM (inactive)
[52]
  GI50: > 25 µM (inactive)
[53]
  GI50: > 25 µM (inactive)
[55]
  GI50: > 25 µM (inactive)

## N=C(N)N/N=C/c1c(-c2ccc(Cl)cc2)nc2sccn12
[1]
  GI50: 2.71 µM (inactive)
[56]
  GI50: 3.21 µM (inactive)
[2]
  GI50: 3.01 µM (inactive)
[3]
  GI50: 1.65 µM (inactive)
[4]
  GI50: 1.56 µM (inactive)
[5]
  GI50: 2.48 µM (inactive)
[6]
  GI50: 4.97 µM (inactive)
[7]
  GI50: 1.86 µM (inactive)
[8]
  GI50: 1.69 µM (inactive)
[9]
  GI50: 3.46 µM (inactive)
[10]
  GI50: 2.1 µM (inactive)
[11]
  GI50: 1.77 µM (inactive)
[13]
  GI50: 4.43 µM (inactive)
[14]
  GI50: 1.95 µM (inactive)
[15]
  GI50: 1.8 µM (inactive)
[16]
  GI50: 1.62 µM (inactive)
[17]
  GI50: 1.76 µM (inactive)
[18]
  GI50: 2.06 µM (inactive)
[19]
  GI50: 1.79 µM (inactive)
[20]
  GI50: 1.72 µM (inactive)
[21]
  GI50: 1.83 µM (inactive)
[22]
  GI50: 1.63 µM (inactive)
[23]
  GI50: 3.11 µM (inactive)
[57]
  GI50: 14.6 µM (inactive)
[24]
  GI50: 2.3 µM (inactive)
[25]
  GI50: 1.95 µM (inactive)
[58]
  GI50: 1.95 µM (inactive)
[26]
  GI50: 1.85 µM (inactive)
[27]
  GI50: 1.33 µM (inactive)
[28]
  GI50: 1.74 µM (inactive)
[29]
  GI50: 3.34 µM (inactive)
[30]
  GI50: 2.66 µM (inactive)
[31]
  GI50: 2.54 µM
[59]
  GI50: 1.95 µM (inactive)
[32]
  GI50: 1.65 µM (inactive)
[33]
  GI50: 4.09 µM (inactive)
[34]
  GI50: 1.64 µM (inactive)
[35]
  GI50: 1.85 µM (inactive)
[36]
  GI50: 1.5 µM (inactive)
[37]
  GI50: 1.55 µM (inactive)
[38]
  GI50: 3.01 µM (inactive)
[39]
  GI50: 1.79 µM (inactive)
[40]
  GI50: 1.35 µM (inactive)
[41]
  GI50: 1.79 µM (inactive)
[42]
  GI50: 1.69 µM (inactive)
[43]
  GI50: 1.61 µM (inactive)
[44]
  GI50: 1.96 µM (inactive)
[45]
  GI50: 2.77 µM (inactive)
[46]
  GI50: 2.18 µM (inactive)
[47]
  GI50: 1.6 µM (inactive)
[48]
  GI50: 1.64 µM (inactive)
[49]
  GI50: 1.46 µM (inactive)
[50]
  GI50: 1.6 µM (inactive)
[51]
  GI50: 2.61 µM (inactive)
[52]
  GI50: 2.21 µM (inactive)
[53]
  GI50: 2 µM (inactive)
[54]
  GI50: 1.35 µM (inactive)
[55]
  GI50: 5.4 µM (inactive)
